Where a SMILES comes first, the peptide text is derived from it. Bridges are numbered along the chain shown (N, C = ends). Roman numbers before positions name the chains, in order. [ ]: non-standard residue; d: D form. The star is where a group is joined. Cys(free,S-linked) = N[C@@H](CS*)C(=O)O; pGlu = O=C1CC[C@@H](C(=O)O)N1
Tests used:
male Wistar rats [1] = assay: one-trial passive avoidance: facilitation effect of memory consolidation; format: in vivo, rat; conditions: for Effect (ratio of the response latent period of each group to that of the control groups): retention tested 24 hours later, latency max 600 seconds
Method: The effect of peptides of the invention on memory consolidation was evaluated by conducting one-trial passive avoidance experiments using male Wistar rats in accordance with the method described by Burbach et al., Science, vol. 221, pp. 1310-1312, 1983. The apparatus was composed of an illuminated room and a dark room, and their floors were made of a stainless-steel grid. The rats placed in the illuminated room could freely enter the dark room. Upon entering the dark room the rats received an electro-shock. Retention of passive avoidance behavior to the electro-shock was determined by the measurement of a response latent period, i.e. the period required for the rat which experienced the electro-shock to re-enter the dark room from the time at which the rat was placed in the illuminated room after predetermined intervals. The rats were treated with the peptides of the invention obtained in the aforementioned Example 1 to 4 or a physiological saline solution by means of a subcutaneous injection immediately after receiving the electro-shock (0.25 mA). Then 24 hours later, the retention of the memory of the electro-shock was tested. […] Comparison Compound 2 (known peptide): [drawing 14] For each group, 6 to 8 rats were tested. The response latent period was measured up to a maximum of 600 seconds. The dose and the effect (the ratio of the response latent period of each group to that of the control groups, shown as %) of the peptides obtained in each example and the peptides of each comparison compound are set forth in Table 1.

male Wistar rats [2] = assay: one-trial passive avoidance: improvement effect of experimental retrograde amnesia by cycloheximide; format: in vivo, rat; conditions: 1 hr before electro-shock (0.5 mA), cycloheximide 2.7 to 3.0 mg/kg s.c. after shock, tested at 48 hours
Method: The effect of peptides of the invention on memory consolidation was evaluated by conducting one-trial passive avoidance experiments using male Wistar rats in accordance with the method described by Burbach et al., Science, vol. 221, pp. 1310-1312, 1983. The apparatus was composed of an illuminated room and a dark room, and their floors were made of a stainless-steel grid. The rats placed in the illuminated room could freely enter the dark room. Upon entering the dark room the rats received an electro-shock. Retention of passive avoidance behavior to the electro-shock was determined by the measurement of a response latent period, i.e. the period required for the rat which experienced the electro-shock to re-enter the dark room from the time at which the rat was placed in the illuminated room after predetermined intervals. The rats received an electro-shock (0.5 mA) one hr. after the administration of the peptides of the invention or a physiological saline solution. Immediately after receiving the electro-shock, the rats were treated with 2.7 to 3.0 mg/kg of cycloheximide or the saline solution by subcutaneous injection. At 48 hours after the administration was made, memory retention of the rats was tested. […] The average response latent period of rats administered with each peptide of the invention and treated with cycloheximide were compared with that of the control group. Six to eight rats were used for each group tested. The response latent period was measured up to a maximum of 600 seconds. The dose and the effect (the ratio of response latent period of each group to that of the control groups, shown as %) of the peptides obtained in each example and the peptides of each comparison example are set forth in Table 2.

[3] = dose 1 ng/kg subcutaneous immediately after electro-shock (0.25 mA)

Structure (SMILES) | Effect (ratio of the response latent period of each group to that of the control groups) (male Wistar rats [1]; dose 10 ng/kg subcutaneous immediately after electro-shock (0.25 mA)) [%] | Effect (ratio of response latent period of each group to that of the control groups) (male Wistar rats [2]; dose 100 ng/kg) [%] | Effect (ratio of the response latent period of each group to that of the control groups) (male Wistar rats [1]; [3]) [%] | dose giving the same effect, as fraction of the dose of Comparison Compound 1 (male Wistar rats [1]; passive avoidance tests, versus Comparison Compound 1) | Effect (ratio of response latent period of each group to that of the control groups) (male Wistar rats [2]; dose 1 ng/kg) [%]
N=C(N)NCCC[C@H](NC(=O)[C@@H]1CCCN1C(=O)[C@H](CSSC[C@H](NC(=O)[C@H](CC(N)=O)NC(=O)[C@@H]1CCC(=O)N1)C(=O)N1CCC[C@H]1C(=O)N[C@@H](CCCNC(=N)N)C(=O)NCC(N)=O)NC(=O)[C@H](CC(N)=O)NC(=O)[C@@H]1CCC(=O)N1)C(=O)NCC(N)=O [Comparison 2, reference compound] (I: [pGlu]NCPRG-NH2 / II: [pGlu]NCPRG-NH2; disulfide I:3-II:3) | 249 | 503 |  |  | 
N=C(N)NCCC[C@@H](NC(=O)[C@@H]1CCCN1C(=O)[C@H](CSSC[C@H](N)C(=O)O)NC(=O)[C@H](CC(N)=O)NC(=O)[C@@H]1CCC(=O)N1)C(=O)NCC(N)=O [Example 1] ([pGlu]NC(Cys(free,S-linked))P[dR]G-NH2) |  |  | 267 | 1/10 | 302
N=C(N)NCCC[C@H](NC(=O)[C@@H]1CCCN1C(=O)[C@H](CS)NC(=O)[C@H](CC(N)=O)NC(=O)[C@@H]1CCC(=O)N1)C(=O)NCC(N)=O [Example 2, pGlu-Asn-Cys-Pro-Arg-Gly--NH2 acetate] ([pGlu]NCPRG-NH2) |  |  | 295 |  | 633
N=C(N)NCCC[C@H](NC(=O)[C@H]1CCCN1C(=O)[C@H](CSSC[C@H](N)C(=O)O)NC(=O)[C@H](CC(N)=O)NC(=O)[C@@H]1CCC(=O)N1)C(=O)NCC(N)=O [Example 3] ([pGlu]NC(Cys(free,S-linked))[dP]RG-NH2) |  |  | 253 |  | 380
N=C(N)NCCC[C@H](NC(=O)[C@@H]1CCCN1C(=O)[C@H](CS)NC(=O)[C@@H](N)CC(N)=O)C(=O)O [Example 4, H-Asn-Cys-Pro-Arg-OH acetate] (H-NCPR-OH) |  |  | 316 |  | 320

Source: patent publication US5180712A, “Petide antidementia and nootropic agents” (Fujirebio Kabushiki Kaisha, priority 1988, dated 1993)
